Laboratory results taken from US9149038B2, “4-amino-6-(heterocyclic)picolinates and 6-amino-2-(heterocyclic)pyrimidine-4-carboxylates and their use as herbicides” (Dow AgroSciences LLC, priority 2013, dated 2015).
Where two headings read alike, the source gives them in different places.

Tests used:
[1] = test system: Key Grass and Sedge Weeds as well as Grass Crops; assay: Post-Emergent Test II: postemergent herbicidal activity, visual rating after 14 d (Table 8); assay type: in vivo; settings: post-emergence, 336 h; for pest or weed control at 35 g/ha: 35 g ai/ha; for pest or weed control at 70 g/ha: 70 g ai/ha; for pest or weed control at 140 g/ha: 140 g ai/ha
In short: (§1)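 Plants were raised in a greenhouse for 7-21 d and treated once at the first or second true leaf stage. Compounds, dissolved in 97:3 acetone:DMSO then diluted into an aqueous acetone/isopropanol/crop oil/Triton X-155 carrier, were applied by overhead track sprayer at 187 L/ha. After 14 d with subirrigation, injury was scored visually from 0 (none) to 100 (complete kill).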

[2] = test system: Key Broadleaf Weed and Crop Species; assay: Post-Emergent Test II: postemergent herbicidal activity, visual rating after 14 d (Table 7); assay type: in vivo; settings: post-emergence, 336 h; for pest or weed control at 35 g/ha: 35 g ai/ha; for pest or weed control at 70 g/ha: 70 g ai/ha; for pest or weed control at 140 g/ha: 140 g ai/ha
In short: as §1

[3] = barnyardgrass (Echinochloa crus-galli), read-out: Visual Growth Reduction (%) 14 Days After Application ECHCG
[4] = giant foxtail (Setaria faberi), read-out: Visual Growth Reduction (%) 14 Days After Application SETFA
[5] = maize, corn (Zea mays), read-out: Visual Growth Reduction (%) 14 Days After Application ZEAMX
[6] = rice (Oryza sativa), read-out: Visual Growth Reduction (%) 14 Days After Application ORYSA
[7] = wheat, spring (Triticum aestivum), read-out: Visual Growth Reduction (%) 14 Days After Application TRZAS
[8] = yellow nutsedge (Cyperus esculentus), read-out: Visual Growth Reduction (%) 14 Days After Application CYPES
[9] = lambsquarters (Chenopodium album), read-out: Visual Growth Reduction (%) 14 Days After Application CHEAL
[10] = oilseed rape, canola (Brassica napus), read-out: Visual Growth Reduction (%) 14 Days After Application BRSNN
[11] = redroot pigweed (Amaranthus retroflexus), read-out: Visual Growth Reduction (%) 14 Days After Application AMARE
[12] = sunflower (Helianthus annuus), read-out: Visual Growth Reduction (%) 14 Days After Application HELAN
[13] = velvetleaf (Abutilon theophrasti), read-out: Visual Growth Reduction (%) 14 Days After Application ABUTH
[14] = wild poinsettia (Euphorbia heterophylla), read-out: Visual Growth Reduction (%) 14 Days After Application EPHHL

Row | SMILES | pest or weed control at 35 g/ha [1, 3] [%] | pest or weed control at 70 g/ha [1, 3] [%] | pest or weed control at 140 g/ha [1, 3] [%] | pest or weed control at 35 g/ha [1, 5] [%] | pest or weed control at 70 g/ha [1, 5] [%] | pest or weed control at 140 g/ha [1, 5] [%] | pest or weed control at 35 g/ha [1, 6] [%] | pest or weed control at 70 g/ha [1, 6] [%] | pest or weed control at 140 g/ha [1, 6] [%] | pest or weed control at 35 g/ha [1, 7] [%] | pest or weed control at 70 g/ha [1, 7] [%] | pest or weed control at 140 g/ha [1, 7] [%] | pest or weed control at 35 g/ha [1, 8] [%] | pest or weed control at 70 g/ha [1, 8] [%] | pest or weed control at 140 g/ha [1, 8] [%] | pest or weed control at 35 g/ha [2, 9] [%] | pest or weed control at 70 g/ha [2, 9] [%] | pest or weed control at 140 g/ha [2, 9] [%] | pest or weed control at 35 g/ha [2, 10] [%] | pest or weed control at 70 g/ha [2, 10] [%] | further results
1 | COC(=O)c1nc(-c2cc3c(cc2F)OCO3)c(F)c(N)c1OC [Compound 26] | 45 to 59 | 60 to 74 | 75 to 84 | 45 to 59 | 45 to 59 | 60 to 74 | 0 to 29 | 0 to 29 | 0 to 29 | 0 to 29 | 0 to 29 | 0 to 29 | 0 to 29 | 0 to 29 | 0 to 29 | 0 to 29 | 0 to 29 | 0 to 29 | 45 to 59 | 60 to 74 | pest or weed control at 35 g/ha [1, 4]: 0 to 29%; pest or weed control at 70 g/ha [1, 4]: 0 to 29%; pest or weed control at 140 g/ha [1, 4]: 0 to 29%; pest or weed control at 140 g/ha [2, 10]: 75 to 84%; pest or weed control at 35 g/ha [2, 11]: 0 to 29%; pest or weed control at 70 g/ha [2, 11]: 0 to 29%; pest or weed control at 140 g/ha [2, 11]: 85 to 94%; pest or weed control at 35 g/ha [2, 12]: 85 to 94%; pest or weed control at 70 g/ha [2, 12]: 95 to 100%; pest or weed control at 140 g/ha [2, 12]: 95 to 100%; pest or weed control at 35 g/ha [2, 13]: 0 to 29%; pest or weed control at 70 g/ha [2, 13]: 0 to 29%; pest or weed control at 140 g/ha [2, 13]: 0 to 29%; pest or weed control at 35 g/ha [2, 14]: 95 to 100%; pest or weed control at 70 g/ha [2, 14]: 95 to 100%; pest or weed control at 140 g/ha [2, 14]: 95 to 100%
2 | COC(=O)c1nc(-c2cc3c(cc2F)OC(F)(F)O3)cc(N)c1Cl [Compound 32] | 60 to 74 | 75 to 84 | 75 to 84 | 60 to 74 | 60 to 74 | 75 to 84 | 0 to 29 | 0 to 29 | 0 to 29 | 45 to 59 | 60 to 74 | 60 to 74 | 95 to 100 | 95 to 100 | 95 to 100 | 95 to 100 | 95 to 100 | 95 to 100 | 60 to 74 | 60 to 74 | pest or weed control at 140 g/ha [2, 10]: 75 to 84%; pest or weed control at 35 g/ha [2, 11]: 0 to 29%; pest or weed control at 70 g/ha [2, 11]: 45 to 59%; pest or weed control at 140 g/ha [2, 11]: 75 to 84%; pest or weed control at 35 g/ha [2, 12]: 75 to 84%; pest or weed control at 70 g/ha [2, 12]: 75 to 84%; pest or weed control at 140 g/ha [2, 12]: 75 to 84%; pest or weed control at 35 g/ha [2, 13]: 85 to 94%; pest or weed control at 70 g/ha [2, 13]: 85 to 94%; pest or weed control at 140 g/ha [2, 13]: 85 to 94%; pest or weed control at 35 g/ha [2, 14]: 0 to 29%; pest or weed control at 70 g/ha [2, 14]: 60 to 74%; pest or weed control at 140 g/ha [2, 14]: 60 to 74%
3 | C=Cc1c(C(=O)O)nc(-c2cc3c(cc2F)OC(F)(F)O3)c(F)c1N [Compound 28] | 60 to 74 | 75 to 84 | 75 to 84 | 60 to 74 | 60 to 74 | 75 to 84 | 0 to 29 | 0 to 29 | 0 to 29 | 0 to 29 | 0 to 29 | 30 to 44 | 95 to 100 | 95 to 100 | 95 to 100 | 0 to 29 | 0 to 29 | 0 to 29 | 0 to 29 | 0 to 29 | pest or weed control at 35 g/ha [1, 4]: 0 to 29%; pest or weed control at 70 g/ha [1, 4]: 45 to 59%; pest or weed control at 140 g/ha [1, 4]: 60 to 74%; pest or weed control at 140 g/ha [2, 10]: 60 to 74%; pest or weed control at 35 g/ha [2, 11]: 0 to 29%; pest or weed control at 70 g/ha [2, 11]: 0 to 29%; pest or weed control at 140 g/ha [2, 11]: 0 to 29%; pest or weed control at 35 g/ha [2, 12]: 85 to 94%; pest or weed control at 70 g/ha [2, 12]: 85 to 94%; pest or weed control at 140 g/ha [2, 12]: 95 to 100%; pest or weed control at 35 g/ha [2, 13]: 0 to 29%; pest or weed control at 70 g/ha [2, 13]: 0 to 29%; pest or weed control at 140 g/ha [2, 13]: 60 to 74%; pest or weed control at 35 g/ha [2, 14]: 95 to 100%; pest or weed control at 70 g/ha [2, 14]: 95 to 100%; pest or weed control at 140 g/ha [2, 14]: 95 to 100%
4 | C=Cc1c(C(=O)O)nc(-c2ccc3c(c2)OC(F)(F)O3)c(F)c1N [Compound 30] | 75 to 84 | 75 to 84 | 75 to 84 | 45 to 59 | 60 to 74 | 75 to 84 | 0 to 29 | 0 to 29 | 0 to 29 | 0 to 29 | 0 to 29 | 0 to 29 | 0 to 29 | 95 to 100 | 95 to 100 | 0 to 29 | 0 to 29 | 0 to 29 | 45 to 59 | 60 to 74 | pest or weed control at 35 g/ha [1, 4]: 0 to 29%; pest or weed control at 70 g/ha [1, 4]: 0 to 29%; pest or weed control at 140 g/ha [1, 4]: 0 to 29%; pest or weed control at 140 g/ha [2, 10]: 75 to 84%; pest or weed control at 35 g/ha [2, 11]: 0 to 29%; pest or weed control at 70 g/ha [2, 11]: 0 to 29%; pest or weed control at 140 g/ha [2, 11]: 0 to 29%; pest or weed control at 35 g/ha [2, 12]: 0 to 29%; pest or weed control at 70 g/ha [2, 12]: 0 to 29%; pest or weed control at 140 g/ha [2, 12]: 85 to 94%; pest or weed control at 35 g/ha [2, 13]: 45 to 59%; pest or weed control at 70 g/ha [2, 13]: 75 to 84%; pest or weed control at 140 g/ha [2, 13]: 75 to 84%; pest or weed control at 35 g/ha [2, 14]: 60 to 74%; pest or weed control at 70 g/ha [2, 14]: 75 to 84%; pest or weed control at 140 g/ha [2, 14]: 85 to 94%
